Laboratory results published in ChEMBL document CHEMBL1157299, “Alkaloids from Eschscholzia californica and their capacity to inhibit binding of [3H]8-Hydroxy-2-(di-N-propylamino)tetralin to 5-HT1A receptors in Vitro” (J Nat Prod, 2006).
Calls of active or inactive are those of the source. The rule behind the calls is not given here. Where a SMILES comes first, the peptide text is derived from it. [ ]: non-standard residue; d: D form.

Legend:
[1] = molecular target: T1, 5-hydroxytryptamine receptor 1A (Homo sapiens, UniProt P08908); experiment: (§1) Displacement of [3H]8-OH-DPAT from human recombinant 5HT1A receptor expressed in CHO cells; type: cell-based
T1 sequence (P08908 whole entry): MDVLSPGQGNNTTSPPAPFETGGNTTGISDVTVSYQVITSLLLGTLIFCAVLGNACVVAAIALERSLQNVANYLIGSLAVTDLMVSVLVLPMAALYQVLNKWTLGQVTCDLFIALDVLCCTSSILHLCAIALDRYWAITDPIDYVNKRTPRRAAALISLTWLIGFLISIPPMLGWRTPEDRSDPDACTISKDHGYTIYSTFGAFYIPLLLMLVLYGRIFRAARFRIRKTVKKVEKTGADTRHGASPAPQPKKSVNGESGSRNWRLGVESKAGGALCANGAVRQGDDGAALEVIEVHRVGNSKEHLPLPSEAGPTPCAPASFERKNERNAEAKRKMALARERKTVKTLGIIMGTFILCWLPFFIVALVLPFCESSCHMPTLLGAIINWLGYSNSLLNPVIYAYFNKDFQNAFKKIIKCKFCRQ

Substance-K receptor = molecular target: T2, Substance-K receptor (Homo sapiens, UniProt P21452); experiment: Displacement of [3H]SR48968 from human recombinant NK2 receptor expressed in CHO cells; type: cell-based
T2 sequence (P21452 whole entry): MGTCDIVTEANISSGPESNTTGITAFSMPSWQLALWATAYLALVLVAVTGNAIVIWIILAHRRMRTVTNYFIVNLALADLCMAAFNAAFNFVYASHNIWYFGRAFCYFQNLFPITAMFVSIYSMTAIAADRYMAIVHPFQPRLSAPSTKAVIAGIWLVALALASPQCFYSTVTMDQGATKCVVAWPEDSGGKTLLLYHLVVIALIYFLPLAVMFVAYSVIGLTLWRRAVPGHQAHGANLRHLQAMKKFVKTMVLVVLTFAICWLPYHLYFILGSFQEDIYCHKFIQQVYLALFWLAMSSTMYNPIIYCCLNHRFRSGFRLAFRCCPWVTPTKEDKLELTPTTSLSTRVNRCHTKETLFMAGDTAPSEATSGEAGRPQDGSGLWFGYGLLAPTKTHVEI

Substance-P receptor = Substance-P receptor (Homo sapiens, UniProt P25103); experiment: Displacement of [3H]SR140333 from human recombinant NK1 receptor expressed in CHO cells; type: cell-based
Sequence of Substance-P receptor (P25103 whole entry): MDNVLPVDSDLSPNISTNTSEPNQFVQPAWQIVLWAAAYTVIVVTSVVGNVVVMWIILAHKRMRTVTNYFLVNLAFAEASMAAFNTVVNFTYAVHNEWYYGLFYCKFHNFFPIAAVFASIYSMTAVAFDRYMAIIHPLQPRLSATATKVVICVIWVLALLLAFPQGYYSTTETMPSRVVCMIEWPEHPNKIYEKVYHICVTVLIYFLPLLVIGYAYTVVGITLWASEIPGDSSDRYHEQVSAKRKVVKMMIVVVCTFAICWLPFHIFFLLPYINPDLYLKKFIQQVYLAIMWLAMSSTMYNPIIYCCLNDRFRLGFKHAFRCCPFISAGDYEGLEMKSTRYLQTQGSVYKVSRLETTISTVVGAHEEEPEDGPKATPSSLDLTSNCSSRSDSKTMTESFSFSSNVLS

[2] = molecular target: T3, 5-hydroxytryptamine receptor 1A (Homo sapiens) (UniProt P08908); experiment: as §1; type: cell-based
T3 sequence (whole entry): T1 sequence (P08908 whole entry)

Cytochrome P450 3A4 = Cytochrome P450 3A4 (Homo sapiens, UniProt P08684)
Sequence of Cytochrome P450 3A4 (P08684 whole entry): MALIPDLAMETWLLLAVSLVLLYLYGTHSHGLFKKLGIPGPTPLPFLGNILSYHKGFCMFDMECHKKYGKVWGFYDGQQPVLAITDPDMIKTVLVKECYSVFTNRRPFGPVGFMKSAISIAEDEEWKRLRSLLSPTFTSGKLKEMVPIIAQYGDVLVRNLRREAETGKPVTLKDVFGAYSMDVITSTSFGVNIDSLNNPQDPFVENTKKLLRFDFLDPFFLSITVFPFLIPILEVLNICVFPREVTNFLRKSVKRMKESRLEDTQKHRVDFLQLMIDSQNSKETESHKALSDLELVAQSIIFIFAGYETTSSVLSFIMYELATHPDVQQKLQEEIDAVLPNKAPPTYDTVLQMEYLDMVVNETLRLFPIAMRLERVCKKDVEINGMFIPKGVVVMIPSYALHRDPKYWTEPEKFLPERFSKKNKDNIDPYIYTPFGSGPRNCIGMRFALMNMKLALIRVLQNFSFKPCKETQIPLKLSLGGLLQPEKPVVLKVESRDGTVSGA

Row | SMILES | EC50 [1] | Activity [2] | IC50 (Cytochrome P450 3A4) | further results
1 | COc1cc2c(cc1O)C[C@H]1c3c(cc(OC)c(OC)c3-2)CCN1C | 0.16 µM | – | – | Ki [1]: 0.085 µM
2 | CC(C)[C@H](NC(=O)[C@@H](Cc1c[nH]c2ccccc12)NC(=O)[C@H](Cc1ccc(O)cc1)NC(=O)[C@@H](N)CC(=O)O)C(=O)N[C@H](Cc1c[nH]c2ccccc12)C(=O)N[C@H](Cc1c[nH]c2ccccc12)C(=O)N[C@@H](CCCCN)C(N)=O (H-DY[dW]V[dW][dW]K-NH2) | – | – | – | EC50 (Substance-K receptor): 0.0781 µM
3 | Ic1ccccc1CN[C@@H]1C2CCN(CC2)[C@@H]1C(c1ccccc1)c1ccccc1 (relative stereo) | – | – | – | EC50 (Substance-P receptor): 0.0244 µM
4 | C[N+]1(C)[C@H]2Cc3cc4c(cc3[C@@H]1Cc1cc3c(cc12)COC3)OCO4 [CALIFORNIDINE] | > 100 µM | inactive | > 80 µM | –
5 | COc1cc2c(cc1O)[C@@H]1Cc3cc4c(cc3[C@H](C2)N1C)OCO4 [CARYACHINE] | 9 µM | 5 µM | – | –
6 | CN1[C@H]2Cc3cc4c(cc3[C@@H]1Cc1cc3c(cc12)OCO3)OCO4 [ESCHOLTZINE] | 11 µM | – | – | Ki [1]: 6 µM
7 | COc1cc(-c2oc3cc(O)cc(O)c3c(=O)c2O[C@@H]2O[C@H](CO[C@@H]3O[C@@H](C)[C@H](O)[C@@H](O)[C@H]3O)[C@@H](O)[C@H](O)[C@H]2O)ccc1O [NARCISSIN] | – | – | > 80 µM | –
8 | CN1CCc2cc3c(cc2C(=O)Cc2ccc4c(c2C1)OCO4)OCO3 [PROTOPINE] | > 100 µM | – | > 80 µM | –
9 | O=c1c(O)c(-c2ccc(O)c(O)c2)oc2cc(O)cc(O)c12 [QUERCETIN] | > 100 µM | inactive | – | –
